This is an account of results in patent publication US20230117324A1, “OXAZINE MONOACYLGLYCEROL LIPASE (MAGL) INHIBITORS” (Hoffmann-La Roche Inc., priority 2018, published 2023).

Broadly, the IC50 is the midpoint of a concentration-inhibition curve.

The target of this test is T1, MAGL (Homo sapiens, UniProt Q99685).
T1 sequence (Q99685 1-303): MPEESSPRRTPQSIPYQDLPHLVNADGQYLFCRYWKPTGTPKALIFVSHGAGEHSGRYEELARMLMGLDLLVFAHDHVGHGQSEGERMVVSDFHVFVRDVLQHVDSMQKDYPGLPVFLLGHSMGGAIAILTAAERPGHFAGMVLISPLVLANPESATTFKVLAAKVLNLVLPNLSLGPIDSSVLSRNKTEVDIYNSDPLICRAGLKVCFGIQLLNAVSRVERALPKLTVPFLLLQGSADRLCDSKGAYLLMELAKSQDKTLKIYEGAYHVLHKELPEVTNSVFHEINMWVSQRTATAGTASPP
Put plainly: MAGL inhibition, 2-AG assay (hydrolysis of 2-arachidonoylglycerol, arachidonic acid by mass spectrometry). The test is classed as biochemical. To be noted: 2-AG assay (footnote [b]). As to the method:
Alternatively, compounds were profiled for MAGL inhibitory activity by determining the enzymatic activity by following the hydrolysis of the natural substrate 2-arachidonoylglycerol (2-AG) resulting in arachidonic acid, which can be followed by mass spectrometry. This assay is hereinafter abbreviated “2-AG assay”.
The 2-AG assay was carried out in 384 well assay plates (PP, Greiner Cat #784201) in a total volume of 20 μL. Compound dilutions were made in 100% DMSO (VWR Chemicals 23500.297) in a polypropylene plate in 3-fold dilution steps to give a final concentration range in the assay from 12.5 μM to […]. 0.25 μL compound dilutions (100% DMSO) were added to 9 μL MAGL in assay buffer (50 mM TRIS (GIBCO, 15567-027), 1 mM EDTA (Fluka, 03690-100 mL), 0.01% (v/v) Tween. After shaking, the plate was incubated for 15 min at RT. To start the reaction, 10 μL 2-arachidonoylglycerol in assay buffer was added. The final concentrations in the assay was […] and 8 μM 2-arachidonoylglyerol. After shaking and 30 min incubation at RT, the reaction was quenched by the addition of 40 μL of ACN containing 4 μM of d8-arachidonic acid. The amount of arachidonic acid was traced by an online SPE system (Agilent Rapidfire) coupled to a triple quadrupole mass spectrometer (Agilent 6460). A C18 SPE cartridge (G9205A) was used in an ACN/water liquid setup. The mass spectrometer was operated in negative electrospray mode following the mass transitions 303.1→259.1 for arachidonic acid and 311.1→267.0 for d8-arachidonic acid. The activity of the compounds was calculated based on the ratio of intensities [arachidonic acid/d8-arachidonic acid].

Compound `CC1CN(C(=O)N2CC[C@@H]3OCC(=O)N[C@@H]3C2)CCC1c1ccc(C(C)(F)F)cn1` (single isomer, unassigned) [Example 43, (4aR,8aS)-6-((3R or 3S)-4-(5-(1,1-Difluoroethyl)pyridin-2-yl)-3-methylpiperidine-1-carbonyl)hexahydro-2H-pyrido[4,3-b][1,4]oxazin-3(4H)-one] had a concentration for half-maximal inhibition (IC50) of 156 nM.

Compound `CC1CN(C(=O)N2CC[C@@H]3OCC(=O)N[C@@H]3C2)CCC1c1ccc(C(C)(F)F)cn1` (single isomer, unassigned) [Example 44, (4aR,8aS)-6-((3S or 3R)-4-(5-(1,1-Difluoroethyl)pyridin-2-yl)-3-methylpiperidine-1-carbonyl)hexahydro-2H-pyrido[4,3-b][1,4]oxazin-3(4H)-one] gave an IC50 of 381 nM.

`CC1CN(C(=O)N2CC[C@@H]3OCC(=O)N[C@@H]3C2)CC[C@@H]1c1ccc(C(C)(F)F)cn1` (single isomer, unassigned) [Example 45, (4aR,8aS)-6-((4R or 4S)-(5-(1,1-Difluoroethyl)pyridin-2-yl)-3-methylpiperidine-1-carbonyl)hexahydro-2H-pyrido[4,3-b][1,4]oxazin-3(4H)-one] returned an IC50 of 3300 nM.

The compound `CC(c1ccc(C(F)(F)F)cc1)C1CCN(C(=O)N2CC[C@@H]3OCC(=O)N[C@@H]3C2)CC1` (single isomer, unassigned) [Example 46, (4aR,8aS)-6-(4-((R or S)-1-(4-(Trifluoromethyl)phenyl)ethyl)piperidine-1-carbonyl)hexahydro-2H-pyrido[4,3-b][1,4]oxazin-3(4H)-one] returned an IC50 of 3 nM.

Take `CC(c1ccc(C(F)(F)F)cc1)C1CCN(C(=O)N2CC[C@@H]3OCC(=O)N[C@@H]3C2)CC1` (single isomer, unassigned) [Example 47, (4aR,8aS)-6-(4-((S or R)-1-(4-(Trifluoromethyl)phenyl)ethyl)piperidine-1-carbonyl)hexahydro-2H-pyrido[4,3-b][1,4]oxazin-3(4H)-one]: the half-maximal inhibitory concentration (IC50) is 514 nM.

`O=C1CO[C@H]2CCN(C(=O)N3CCC(C(OCC(F)(F)F)c4ccc(F)cc4)CC3)C[C@H]2N1` (single isomer, unassigned) [Example 57, (4aR,8aS)-6-(4-((R or S)-(4-Fluorophenyl)(2,2,2-trifluoroethoxy)methyl)piperidine-1-carbonyl)hexahydro-2H-pyrido[4,3-b][1,4]oxazin-3(4H)-one] returned a half-maximal inhibitory concentration (IC50) of 29 nM.

As for `O=C1CO[C@H]2CCN(C(=O)N3CCC(C(OCC(F)(F)F)c4ccc(F)cc4)CC3)C[C@H]2N1` (single isomer, unassigned) [Example 58, (4aR,8aS)-6-(4-((S or R)-(4-Fluorophenyl)(2,2,2-trifluoroethoxy)methyl)piperidine-1-carbonyl)hexahydro-2H-pyrido[4,3-b][1,4]oxazin-3(4H)-one], inhibition was half-maximal at 7 nM (IC50).

The compound `Cc1noc(CC(c2ccc(F)cc2)C2CCN(C(=O)N3CC[C@@H]4OCC(=O)N[C@@H]4C3)CC2)n1` (single isomer, unassigned) [Example 59, (4aR,8aS)-6-(4-((R or S)-1-(4-Fluorophenyl)-2-(3-methyl-1,2,4-oxadiazol-5-yl)ethyl)piperidine-1-carbonyl)hexahydro-2H-pyrido[4,3-b][1,4]oxazin-3(4H)-one] had a half-maximal inhibitory concentration (IC50) of 60 nM.

The compound `Cc1noc(CC(c2ccc(F)cc2)C2CCN(C(=O)N3CC[C@@H]4OCC(=O)N[C@@H]4C3)CC2)n1` (single isomer, unassigned) [Example 60, (4aR,8aS)-6-(4-((S or R)-1-(4-Fluorophenyl)-2-(3-methyl-1,2,4-oxadiazol-5-yl)ethyl)piperidine-1-carbonyl)hexahydro-2H-pyrido[4,3-b][1,4]oxazin-3(4H)-one] showed a 50% inhibitory concentration (IC50) of 67 nM.

For the compound `COc1cccc(C(c2ccc(F)cc2)C2CCN(C(=O)N3CC[C@@H]4OCC(=O)N[C@@H]4C3)CC2)c1` (single isomer, unassigned) [Example 62, (4aR,8aS)-6-[4-[(S or R)-(4-Fluorophenyl)-(3-methoxyphenyl)methyl]piperidine-1-carbonyl]-4,4a,5,7,8,8a-hexahydropyrido[4,3-b][1,4]oxazin-3-one], it took 0.4 nM to reach half-maximal inhibition (IC50).

`COc1cccc(C(c2ccc(F)cc2)C2CCN(C(=O)N3CC[C@@H]4OCC(=O)N[C@@H]4C3)CC2)c1` (single isomer, unassigned) [Example 63, (4aR,8aS)-6-(4-((R or S)-(4-Fluorophenyl)(3-methoxyphenyl)methyl)piperidine-1-carbonyl)hexahydro-2H-pyrido[4,3-b][1,4]oxazin-3(4H)-one] had an IC50 of 0.3 nM.

The compound `COc1cccc(C(c2ccccc2)C2CCN(C(=O)N3CC[C@@H]4OCC(=O)N[C@@H]4C3)CC2)c1` (single isomer, unassigned) [Example 64, (4aR,8aS)-6-(4-((S or R)-(3-Methoxyphenyl)(phenyl)methyl)piperidine-1-carbonyl)hexahydro-2H-pyrido[4,3-b][1,4]oxazin-3(4H)-one] showed a concentration for half-maximal inhibition (IC50) of 0.2 nM.

The compound `COc1cccc(C(c2ccccc2)C2CCN(C(=O)N3CC[C@@H]4OCC(=O)N[C@@H]4C3)CC2)c1` (single isomer, unassigned) [Example 65, (4aR,8aS)-6-(4-((R or S)-(3-Methoxyphenyl)(phenyl)methyl)piperidine-1-carbonyl)hexahydro-2H-pyrido[4,3-b][1,4]oxazin-3(4H)-one] returned a half-inhibitory concentration (IC50) of 0.2 nM.

Consider `O=C1CO[C@H]2CCN(C(=O)N3CCC(C(c4ccccc4)c4cccc(OCCF)c4)CC3)C[C@H]2N1` (single isomer, unassigned) [Example 66, (4aR,8aS)-6-(4-((S or R)-(3-(2-Fluoroethoxy)phenyl)(phenyl)methyl)piperidine-1-carbonyl)hexahydro-2H-pyrido[4,3-b][1,4]oxazin-3(4H)-one], for which the half-maximal inhibitory concentration (IC50) turned out to be 0.4 nM.

In turn, `O=C1CO[C@H]2CCN(C(=O)N3CCC(C(c4ccccc4)c4ccc(F)cc4)CC3)C[C@H]2N1` (single isomer, unassigned) [Example 68, (4aR,8aS)-6-(4-((S or R)-(4-Fluorophenyl)(phenyl)methyl)piperidine-1-carbonyl)hexahydro-2H-pyrido[4,3-b][1,4]oxazin-3(4H)-one] came in with an IC50 of 0.2 nM.

Regarding `Cc1ccc(C(c2ccc(F)cc2)C2CCN(C(=O)N3CC[C@@H]4OCC(=O)N[C@@H]4C3)CC2)cc1` (single isomer, unassigned) [Example 69, (4aR,8aS)-6-[4-[(S or R)-(4-Fluorophenyl)-(4-methylphenyl)methyl]piperidine-1-carbonyl]-4,4a,5,7,8,8a-hexahydropyrido[4,3-b][1,4]oxazin-3-one], the half-maximal inhibitory concentration (IC50) was 0.1 nM.

For `O=C1CO[C@H]2CCN(C(=O)N3CCC(C(c4ccccc4)c4ccc(OCCF)cc4)CC3)C[C@H]2N1` (single isomer, unassigned) [Example 70, (4aR,8aS)-6-[4-[(R or S)-[4-(2-Fluoroethoxy)phenyl]-phenylmethyl]piperidine-1-carbonyl]-4,4a,5,7,8,8a-hexahydropyrido[4,3-b][1,4]oxazin-3-one], the half-inhibitory concentration (IC50) came to 4 nM.

On to `COc1ccc(C(c2ccc(F)cc2)C2CCN(C(=O)N3CC[C@@H]4OCC(=O)N[C@@H]4C3)CC2)cc1` (single isomer, unassigned) [Example 71, (4aR,8aS)-6-(4-((S or R)-(4-Fluorophenyl)(4-methoxyphenyl)methyl)piperidine-1-carbonyl)hexahydro-2H-pyrido[4,3-b][1,4]oxazin-3(4H)-one], for which inhibition was half-maximal at 0.2 nM (IC50).

Compound `Cc1ccc(C(c2ccc(F)cc2)C2CCN(C(=O)N3CC[C@@H]4OCC(=O)N[C@@H]4C3)CC2)cc1` (single isomer, unassigned) [Example 72, (4aR,8aS)-6-(4-((R or S)-(4-Fluorophenyl)(p-tolyl)methyl)piperidine-1-carbonyl)hexahydro-2H-pyrido[4,3-b][1,4]oxazin-3(4H)-one] came in with a half-inhibitory concentration (IC50) of 0.1 nM.

For the compound `COc1ccc(C(c2ccc(F)cc2)C2CCN(C(=O)N3CC[C@@H]4OCC(=O)N[C@@H]4C3)CC2)cc1OC` (single isomer, unassigned) [Example 73, (4aR,8aS)-6-(4-((S or R)-(3,4-Dimethoxyphenyl)(4-fluorophenyl)methyl)piperidine-1-carbonyl)hexahydro-2H-pyrido[4,3-b][1,4]oxazin-3(4H)-one], the IC50 worked out at 0.4 nM.

`COc1ccc(C(c2ccccc2)C2CCN(C(=O)N3CC[C@@H]4OCC(=O)N[C@@H]4C3)CC2)cc1OC` (single isomer, unassigned) [Example 74, (4aR,8aS)-6-(4-((R or S)-(3,4-Dimethoxyphenyl)(phenyl)methyl)piperidine-1-carbonyl)hexahydro-2H-pyrido[4,3-b][1,4]oxazin-3(4H)-one] showed a 50% inhibitory concentration (IC50) of 2 nM.
